Laboratory results reported in US20050271692A1, “Topical cosmetic compositions” (Cosmeceutic Solutions Pty. Ltd., priority 2002, published 2005).

What was measured:
[1] = In vitro skin diffusion study, flow-through diffusion cells; format: in vitro ADME, human; details: o/w cream with 2% octyl salicylate vs control cream without, 24 hours, 32° C, receptor 20% EtOH in water, p<0:05
Procedure: In vitro diffusion experiments were performed using stainless steel flow-through diffusion cells, using human epidermis maintained at 32° C. The receptor solution consisted of 20% EtOH in Milli-Q water. Eight cells for each condition were treated with 100 mg of appropriate donor phase. Samples were collected at appropriate time points and analysed by high performance liquid chromatography (HPLC).

[2] = In vitro skin tape-stripping study; format: in vitro ADME, human; details: o/w cream with octyl salicylate vs control cream without; 10 hours after application; 20 tape strips
Procedure: Experiments were performed using full thickness human skin, after removal of the subcutaneous layer. Each skin sample was treated with 40 mg of appropriate donor phase. Serial sampling of the skin was completed at different time points after donor application, by tape stripping (3M Corp Adhesive tape) with a pressure load of 240 g/cm^2. Each tape strip removed approximately 1 layer of stratum corneum, and in each case, 20 tape strips were performed. Tape strips were extracted with methanol: chloroform and analysed by high performance liquid chromatography (HPLC).

increase of the cumulative amount across human epidermis compared with the control formulation [1] [%] | amount in the upper and middle regions of the stratum corneum (tape strips) [2] | SMILES
39 |  | O=c1c(-c2ccc(O)cc2)coc2cc(O)cc(O)c12 [genistein]
 | increase the amount | COC1=C(OC)C(=O)C(C/C=C(\C)CC/C=C(\C)CC/C=C(\C)CC/C=C(\C)CC/C=C(\C)CC/C=C(\C)CC/C=C(\C)CC/C=C(\C)CC/C=C(\C)CCC=C(C)C)=C(C)C1=O [CoQ10, Coenzyme Q10]
 | increase the amount | O=C(O)CC(O)(CC(=O)O)C(=O)O [citric acid]
